{"source": "ChEMBL document CHEMBL2203234", "about": "“Optimisation of imidazole compounds as selective TAAR1 agonists: discovery of RO5073012” (Bioorg Med Chem Lett, 2012)", "key": {"[1]": {"assay": "Oral bioavailability in rat at 10 mg/kg", "type": "ADME, organism-based", "conditions": "in vivo"}, "[2]": {"target": "Melanocyte-stimulating hormone receptor (Homo sapiens) (UniProt Q01726)", "assay": "Inhibition of MC1 receptor at 10 uM by CEREP assay"}, "[3]": {"assay": "Inhibition of peripheral BZD receptor at 10 uM by CEREP assay"}, "[4]": {"assay": "Inhibition of P2Y receptor at 10 uM by CEREP assay"}, "[5]": {"target": "Vasopressin V1a receptor (Homo sapiens) (UniProt P37288)", "assay": "Inhibition of human V1a receptor at 10 uM by CEREP assay"}, "[6]": {"target": "C-X-C chemokine receptor type 4 (Homo sapiens) (UniProt P61073)", "sequence (P61073 whole entry)": "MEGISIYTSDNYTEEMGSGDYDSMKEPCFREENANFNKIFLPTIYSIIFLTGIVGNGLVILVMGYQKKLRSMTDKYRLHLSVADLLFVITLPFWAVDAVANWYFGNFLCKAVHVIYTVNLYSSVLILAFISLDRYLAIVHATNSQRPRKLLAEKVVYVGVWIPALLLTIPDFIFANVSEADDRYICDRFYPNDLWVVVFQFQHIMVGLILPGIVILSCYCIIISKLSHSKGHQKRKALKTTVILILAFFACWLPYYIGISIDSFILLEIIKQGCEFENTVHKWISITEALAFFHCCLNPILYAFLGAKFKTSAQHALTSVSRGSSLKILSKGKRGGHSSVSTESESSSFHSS", "assay": "Inhibition of human CXCR4 receptor at 10 uM by CEREP assay"}, "[7]": {"target": "Neuronal acetylcholine receptor; alpha4/beta2 (Homo sapiens) (UniProt P17787+P43681)", "assay": "Inhibition of neuronal alpha4beta2 nAChR at 10 uM by CEREP assay", "type": "protein-complex assay"}, "[8]": {"target": "Motilin receptor (Homo sapiens) (UniProt O43193)", "assay": "Inhibition of human Motilin receptor at 10 uM by CEREP assay"}, "[9]": {"target": "C-C chemokine receptor type 1 (Homo sapiens) (UniProt P32246)", "assay": "Inhibition of human CCR1 receptor at 10 uM by CEREP assay"}, "[10]": {"target": "Adenosine receptor A3 (Homo sapiens) (UniProt P0DMS8)", "assay": "Inhibition of human A3 receptor at 10 uM by CEREP assay"}, "[11]": {"target": "5-hydroxytryptamine receptor 7 (Homo sapiens) (UniProt P34969)", "assay": "Inhibition of human 5-HT7 receptor at 10 uM by CEREP assay"}, "[12]": {"assay": "Inhibition of Guanylyl cyclase at 10 uM by CEREP assay"}, "[13]": {"target": "B2 bradykinin receptor (Homo sapiens) (UniProt P30411)", "assay": "Inhibition of human B2 receptor at 10 uM by CEREP assay"}, "[14]": {"target": "Progesterone receptor (Homo sapiens) (UniProt P06401)", "assay": "Inhibition of human progesterone receptor at 10 uM by CEREP assay"}, "[15]": {"target": "MAO-A (amine oxidase [flavin-containing] A) (Homo sapiens, UniProt P21397)", "sequence (P21397 whole entry)": "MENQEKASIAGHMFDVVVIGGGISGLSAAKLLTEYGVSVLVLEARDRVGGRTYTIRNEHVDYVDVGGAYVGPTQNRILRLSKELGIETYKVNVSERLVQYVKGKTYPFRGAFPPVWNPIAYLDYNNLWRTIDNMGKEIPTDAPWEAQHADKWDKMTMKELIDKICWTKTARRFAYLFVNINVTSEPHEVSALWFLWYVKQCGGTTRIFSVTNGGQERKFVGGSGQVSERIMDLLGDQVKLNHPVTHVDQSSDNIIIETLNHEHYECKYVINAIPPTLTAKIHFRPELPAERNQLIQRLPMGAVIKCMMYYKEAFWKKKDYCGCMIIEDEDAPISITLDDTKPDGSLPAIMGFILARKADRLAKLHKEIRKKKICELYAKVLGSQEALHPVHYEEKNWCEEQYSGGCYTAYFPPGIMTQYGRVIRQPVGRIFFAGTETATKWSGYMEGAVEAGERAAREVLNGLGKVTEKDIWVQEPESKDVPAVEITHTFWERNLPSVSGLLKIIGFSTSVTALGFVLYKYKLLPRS", "assay": "Inhibition of human MAO-A at 10 uM by CEREP assay"}, "[16]": {"target": "Muscarinic acetylcholine receptor M1 (Homo sapiens) (UniProt P11229)", "sequence (P11229 whole entry)": "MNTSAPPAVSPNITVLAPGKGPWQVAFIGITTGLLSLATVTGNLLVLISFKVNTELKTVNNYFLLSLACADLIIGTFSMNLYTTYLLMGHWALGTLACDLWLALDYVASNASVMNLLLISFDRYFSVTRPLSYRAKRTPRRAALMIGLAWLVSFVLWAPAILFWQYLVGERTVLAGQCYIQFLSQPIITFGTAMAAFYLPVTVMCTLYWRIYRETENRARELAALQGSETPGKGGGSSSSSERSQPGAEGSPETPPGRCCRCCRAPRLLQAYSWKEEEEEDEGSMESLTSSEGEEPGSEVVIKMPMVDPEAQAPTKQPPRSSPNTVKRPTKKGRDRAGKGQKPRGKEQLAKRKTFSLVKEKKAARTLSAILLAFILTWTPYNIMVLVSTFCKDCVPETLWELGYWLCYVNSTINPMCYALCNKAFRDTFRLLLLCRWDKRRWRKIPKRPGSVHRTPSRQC", "assay": "Inhibition of human M1 receptor at 10 uM by CEREP assay"}, "[17]": {"target": "Vasoactive intestinal polypeptide receptor 1 (Homo sapiens) (UniProt P32241)", "sequence (P32241 whole entry)": "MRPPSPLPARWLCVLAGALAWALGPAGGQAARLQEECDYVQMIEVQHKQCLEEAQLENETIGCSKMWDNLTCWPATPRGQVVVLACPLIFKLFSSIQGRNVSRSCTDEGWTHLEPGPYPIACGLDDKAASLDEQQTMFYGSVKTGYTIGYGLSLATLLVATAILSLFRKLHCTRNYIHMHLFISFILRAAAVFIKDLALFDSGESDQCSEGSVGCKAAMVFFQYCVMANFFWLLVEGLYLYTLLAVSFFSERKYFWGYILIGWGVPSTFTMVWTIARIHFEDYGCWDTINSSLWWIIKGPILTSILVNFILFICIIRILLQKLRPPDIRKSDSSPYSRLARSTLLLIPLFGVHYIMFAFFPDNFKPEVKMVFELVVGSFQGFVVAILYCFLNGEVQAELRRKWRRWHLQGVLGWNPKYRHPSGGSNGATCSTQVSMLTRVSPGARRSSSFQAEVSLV", "assay": "Inhibition of human VIP1 receptor at 10 uM by CEREP assay"}, "[18]": {"target": "Gastrin/cholecystokinin type B receptor (Homo sapiens) (UniProt P32239)", "sequence (P32239 whole entry)": "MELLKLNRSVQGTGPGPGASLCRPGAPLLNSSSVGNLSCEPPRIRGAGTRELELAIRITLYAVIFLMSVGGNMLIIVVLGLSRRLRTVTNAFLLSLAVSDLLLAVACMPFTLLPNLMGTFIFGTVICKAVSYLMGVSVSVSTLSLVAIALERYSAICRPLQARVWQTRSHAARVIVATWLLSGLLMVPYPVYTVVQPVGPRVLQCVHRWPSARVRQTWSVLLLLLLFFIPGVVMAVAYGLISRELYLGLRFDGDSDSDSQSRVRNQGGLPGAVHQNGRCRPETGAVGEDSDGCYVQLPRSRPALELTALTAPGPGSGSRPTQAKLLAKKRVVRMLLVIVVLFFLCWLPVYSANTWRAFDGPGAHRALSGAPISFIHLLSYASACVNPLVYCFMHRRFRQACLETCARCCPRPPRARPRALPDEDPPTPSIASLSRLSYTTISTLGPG", "assay": "Inhibition of human CCKB receptor at 10 uM by CEREP assay"}, "[19]": {"target": "Phosphodiesterase 6 (Homo sapiens) (UniProt Q13956+P18545+P35913+O43924+P16499+P51160)", "assay": "Inhibition of human PDE6 at 10 uM by CEREP assay", "type": "protein assay"}, "[20]": {"target": "Muscarinic acetylcholine receptor M3 (Homo sapiens) (UniProt P20309)", "sequence (P20309 whole entry, looked up)": "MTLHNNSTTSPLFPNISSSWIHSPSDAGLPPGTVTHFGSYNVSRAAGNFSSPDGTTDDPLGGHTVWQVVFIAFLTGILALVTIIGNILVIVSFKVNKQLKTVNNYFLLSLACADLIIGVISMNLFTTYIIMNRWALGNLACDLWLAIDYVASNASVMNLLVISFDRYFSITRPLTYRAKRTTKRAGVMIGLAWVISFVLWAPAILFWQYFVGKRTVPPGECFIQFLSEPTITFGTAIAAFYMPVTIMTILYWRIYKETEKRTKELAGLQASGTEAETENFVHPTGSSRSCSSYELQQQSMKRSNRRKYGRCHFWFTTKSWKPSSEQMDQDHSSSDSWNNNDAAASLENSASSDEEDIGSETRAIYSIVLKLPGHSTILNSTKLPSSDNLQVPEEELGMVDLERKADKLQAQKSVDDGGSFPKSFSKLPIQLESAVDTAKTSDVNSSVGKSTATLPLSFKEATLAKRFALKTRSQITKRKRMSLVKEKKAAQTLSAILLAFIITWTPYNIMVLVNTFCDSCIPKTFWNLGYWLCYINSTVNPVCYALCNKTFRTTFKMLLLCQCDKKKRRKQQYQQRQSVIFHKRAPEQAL", "assay": "Inhibition of human M3 receptor at 10 uM by CEREP assay"}, "[21]": {"target": "cGMP-specific 3',5'-cyclic phosphodiesterase (Canis lupus familiaris) (UniProt O77746)", "assay": "Inhibition of human PDE5 at 10 uM by CEREP assay"}, "[22]": {"assay": "Cmax in mouse at 7.1 mg/kg, po", "type": "ADME, organism-based", "design": "dose 7.1 mg/kg, route oral", "conditions": "in vivo"}, "[23]": {"assay": "Inhibition of SKca channel at 10 uM by CEREP assay"}, "[24]": {"target": "Nociceptin receptor (Homo sapiens) (UniProt P41146)", "assay": "Inhibition of human ORL1 receptor at 10 uM by CEREP assay"}, "[25]": {"assay": "Inhibition of L-type Ca2+ channel diltiazem site at 10 uM by CEREP assay"}, "[26]": {"assay": "Inhibition of alpha 1 adrenergic receptor at 10 uM by CEREP assay"}, "[27]": {"assay": "Inhibition of human I1 receptor by CEREP assay"}, "[28]": {"target": "Substance-K receptor (Homo sapiens) (UniProt P21452)", "sequence (P21452 whole entry)": "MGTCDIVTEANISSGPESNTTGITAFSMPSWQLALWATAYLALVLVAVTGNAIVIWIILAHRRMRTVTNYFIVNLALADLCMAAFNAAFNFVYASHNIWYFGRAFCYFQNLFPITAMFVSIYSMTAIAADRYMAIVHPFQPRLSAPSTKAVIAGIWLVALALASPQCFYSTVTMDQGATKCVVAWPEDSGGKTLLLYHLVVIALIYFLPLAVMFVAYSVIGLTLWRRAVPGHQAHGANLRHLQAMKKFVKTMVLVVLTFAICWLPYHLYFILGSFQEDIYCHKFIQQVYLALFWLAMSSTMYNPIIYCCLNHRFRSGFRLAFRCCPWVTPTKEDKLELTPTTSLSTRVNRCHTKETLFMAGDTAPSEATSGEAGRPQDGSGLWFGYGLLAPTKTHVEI", "assay": "Inhibition of human Nk2 receptor at 10 uM by CEREP assay"}, "[29]": {"assay": "Inhibition of alpha 2 adrenergic receptor by CEREP assay"}, "[30]": {"assay": "Inhibition of Cl- channel at 10 uM by CEREP assay"}, "Homo sapiens [31]": {"organism": "Homo sapiens", "assay": "Inhibition of human DOP/delta 2 receptor at 10 uM by CEREP assay"}, "[32]": {"assay": "Half life in rat at 10 mg/kg, po", "type": "ADME, organism-based", "design": "dose 10 mg/kg, route oral", "conditions": "in vivo"}, "[33]": {"assay": "Inhibition of GABA receptor at 10 uM by CEREP assay"}, "[34]": {"target": "Cysteinyl leukotriene receptor 1 (Homo sapiens) (UniProt Q9Y271)", "sequence (Q9Y271 whole entry)": "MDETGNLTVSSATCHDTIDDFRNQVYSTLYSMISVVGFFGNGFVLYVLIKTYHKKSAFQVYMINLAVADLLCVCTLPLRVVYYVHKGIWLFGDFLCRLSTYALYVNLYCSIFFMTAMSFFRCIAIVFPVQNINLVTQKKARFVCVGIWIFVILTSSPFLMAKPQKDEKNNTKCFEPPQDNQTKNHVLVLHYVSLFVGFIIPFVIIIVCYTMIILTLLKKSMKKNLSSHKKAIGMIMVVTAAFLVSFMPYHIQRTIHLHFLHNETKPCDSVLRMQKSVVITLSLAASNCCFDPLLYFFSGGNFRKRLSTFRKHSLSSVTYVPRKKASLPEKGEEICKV", "assay": "Inhibition of human LTD4 receptor at 10 uM by CEREP assay"}, "[35]": {"target": "5-hydroxytryptamine receptor 5A (Homo sapiens) (UniProt P47898)", "assay": "Inhibition of human 5-HT5A receptor at 10 uM by CEREP assay"}, "[36]": {"target": "5-hydroxytryptamine receptor 1A (Homo sapiens, UniProt P08908)", "sequence (P08908 whole entry)": "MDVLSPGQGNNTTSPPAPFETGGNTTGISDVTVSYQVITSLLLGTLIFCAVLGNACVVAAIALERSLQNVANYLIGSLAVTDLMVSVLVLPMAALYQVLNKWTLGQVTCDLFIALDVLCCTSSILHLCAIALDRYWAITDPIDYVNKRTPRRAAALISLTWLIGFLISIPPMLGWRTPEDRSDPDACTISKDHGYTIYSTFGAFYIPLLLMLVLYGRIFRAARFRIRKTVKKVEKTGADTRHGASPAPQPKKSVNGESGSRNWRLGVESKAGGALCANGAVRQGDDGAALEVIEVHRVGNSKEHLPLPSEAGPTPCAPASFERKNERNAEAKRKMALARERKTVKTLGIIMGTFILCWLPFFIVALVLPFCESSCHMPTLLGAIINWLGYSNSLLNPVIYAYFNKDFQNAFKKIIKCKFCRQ", "assay": "Inhibition of human 5-HT1A receptor by CEREP assay"}, "[37]": {"target": "C-C chemokine receptor type 2 (Homo sapiens) (UniProt P41597)", "sequence (P41597 whole entry, looked up)": "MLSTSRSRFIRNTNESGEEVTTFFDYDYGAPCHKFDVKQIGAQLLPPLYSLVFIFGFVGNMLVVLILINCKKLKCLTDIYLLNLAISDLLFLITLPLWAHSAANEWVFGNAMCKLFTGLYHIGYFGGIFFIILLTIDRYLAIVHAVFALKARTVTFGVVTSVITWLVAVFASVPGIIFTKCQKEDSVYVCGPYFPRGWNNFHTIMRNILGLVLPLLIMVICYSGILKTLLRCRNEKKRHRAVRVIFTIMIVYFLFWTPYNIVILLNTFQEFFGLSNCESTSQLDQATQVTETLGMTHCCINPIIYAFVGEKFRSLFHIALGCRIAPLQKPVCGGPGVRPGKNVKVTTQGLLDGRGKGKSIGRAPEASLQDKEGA", "assay": "Inhibition of human CCR2 receptor at 10 uM by CEREP assay"}, "[38]": {"target": "T1, Trace amine-associated receptor 1 (Homo sapiens, UniProt Q96RJ0)", "T1 sequence (Q96RJ0 whole entry)": "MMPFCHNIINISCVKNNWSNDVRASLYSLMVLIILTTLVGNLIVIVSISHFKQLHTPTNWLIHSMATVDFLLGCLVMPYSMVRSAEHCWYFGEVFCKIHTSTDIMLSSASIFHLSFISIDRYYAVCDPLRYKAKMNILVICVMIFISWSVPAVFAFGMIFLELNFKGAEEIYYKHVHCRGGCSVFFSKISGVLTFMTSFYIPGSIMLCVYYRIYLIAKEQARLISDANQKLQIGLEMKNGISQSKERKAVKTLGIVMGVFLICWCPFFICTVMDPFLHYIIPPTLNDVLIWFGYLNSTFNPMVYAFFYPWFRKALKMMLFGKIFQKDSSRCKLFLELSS", "assay": "Displacement of (S)-4-(2,4-difluorophenyl-3-tritio) -4,5-dihydro-2-oxazolamine from human TAAR1 receptor expressed in HEK293 cells after 90 mins by beta counting analysis", "type": "cell-based"}, "Homo sapiens [39]": {"organism": "Homo sapiens", "assay": "Inhibition of human I2 receptor at 10 uM by CEREP assay"}, "[40]": {"target": "Glutamate [NMDA] receptor (Homo sapiens) (UniProt Q05586+Q12879+Q13224+O15399+O60391+Q14957+Q8TCU5)", "assay": "Inhibition of human NMDA receptor at 10 uM by CEREP assay"}, "[41]": {"assay": "Oral bioavailability in mouse at 7.1 mg/kg", "type": "ADME, organism-based", "conditions": "in vivo"}, "[42]": {"target": "Histamine H2 receptor (Homo sapiens) (UniProt P25021)", "sequence (P25021 whole entry)": "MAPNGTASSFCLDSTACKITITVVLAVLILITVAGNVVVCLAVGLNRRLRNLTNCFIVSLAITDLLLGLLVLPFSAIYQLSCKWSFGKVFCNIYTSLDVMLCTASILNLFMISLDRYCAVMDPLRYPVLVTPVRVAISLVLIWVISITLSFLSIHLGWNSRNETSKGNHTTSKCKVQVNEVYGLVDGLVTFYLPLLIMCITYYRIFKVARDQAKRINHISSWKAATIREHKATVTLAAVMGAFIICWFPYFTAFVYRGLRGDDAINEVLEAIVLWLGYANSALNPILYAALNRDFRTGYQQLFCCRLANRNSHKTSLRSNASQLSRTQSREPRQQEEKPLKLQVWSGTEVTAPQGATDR", "assay": "Inhibition of human H2 receptor at 10 uM by CEREP assay"}}, "data": [{"smiles": "CCc1cccc(CC)c1Cc1ncc[nH]1", "values": [{"measurement": "bioavailability", "setting": "[1]", "value": 17, "unit": "%"}, {"measurement": "inhibition", "setting": "[2]", "value": 2, "unit": "%"}, {"measurement": "inhibition", "setting": "[3]", "value": 1, "unit": "%"}, {"measurement": "inhibition", "setting": "[4]", "value": 1, "unit": "%"}, {"measurement": "inhibition", "setting": "[5]", "value": 1, "unit": "%"}, {"measurement": "inhibition", "setting": "[6]", "value": 11, "unit": "%"}, {"measurement": "inhibition", "setting": "[7]", "value": 7, "unit": "%"}, {"measurement": "inhibition", "setting": "[8]", "value": 4, "unit": "%"}, {"measurement": "inhibition", "setting": "[9]", "value": -1, "unit": "%"}, {"measurement": "inhibition", "setting": "[10]", "value": 2, "unit": "%"}, {"measurement": "inhibition", "setting": "[11]", "value": 54, "unit": "%"}, {"measurement": "inhibition", "setting": "[12]", "value": 1, "unit": "%"}, {"measurement": "inhibition", "setting": "[13]", "value": 3, "unit": "%"}, {"measurement": "inhibition", "setting": "[14]", "value": -2, "unit": "%"}, {"measurement": "inhibition at 10 µM", "setting": "[15]", "value": -4, "unit": "%"}, {"measurement": "inhibition", "setting": "[16]", "value": 24, "unit": "%"}, {"measurement": "inhibition", "setting": "[17]", "value": 1, "unit": "%"}, {"measurement": "inhibition", "setting": "[18]", "value": 6, "unit": "%"}, {"measurement": "inhibition", "setting": "[19]", "value": 6, "unit": "%"}, {"measurement": "inhibition", "setting": "[20]", "value": 25, "unit": "%"}, {"measurement": "inhibition", "setting": "[21]", "value": 5, "unit": "%"}, {"measurement": "Cmax", "setting": "[22]", "value": 300, "unit": "ng/mL"}, {"measurement": "inhibition", "setting": "[23]", "value": 0, "unit": "%"}, {"measurement": "inhibition", "setting": "[24]", "value": -3, "unit": "%"}, {"measurement": "inhibition", "setting": "[25]", "value": 34, "unit": "%"}, {"measurement": "inhibition", "setting": "[26]", "value": 23, "unit": "%"}, {"measurement": "Ki", "setting": "[27]", "value": 0.66, "unit": "µM"}, {"measurement": "inhibition", "setting": "[28]", "value": 3, "unit": "%"}, {"measurement": "Ki", "setting": "[29]", "value": 2.4, "unit": "µM"}, {"measurement": "inhibition", "setting": "[30]", "value": 3, "unit": "%"}, {"measurement": "inhibition", "setting": "Homo sapiens [31]", "value": 7, "unit": "%"}, {"measurement": "half-life", "setting": "[32]", "value": 4.9, "unit": "h"}, {"measurement": "inhibition", "setting": "[33]", "value": -10, "unit": "%"}, {"measurement": "inhibition", "setting": "[34]", "value": 1, "unit": "%"}, {"measurement": "inhibition", "setting": "[35]", "value": 20, "unit": "%"}, {"measurement": "Ki", "setting": "[36]", "value": 1.3, "unit": "µM"}, {"measurement": "inhibition", "setting": "[37]", "value": 12, "unit": "%"}, {"measurement": "Ki", "setting": "[38]", "value": 0.024, "unit": "µM"}, {"measurement": "inhibition", "setting": "Homo sapiens [39]", "value": 59, "unit": "%"}, {"measurement": "inhibition", "setting": "[40]", "value": 2, "unit": "%"}, {"measurement": "bioavailability", "setting": "[41]", "value": 21, "unit": "%"}, {"measurement": "inhibition", "setting": "[42]", "value": 4, "unit": "%"}]}]}
